Data from patent US20230183237A1, “COMPETITIVE AND NONCOMPETITIVE INHIBITORS OF THE MUSCARINIC ACETYLCHOLINE RECEPTOR M5” (Vanderbilt University, priority 2020, published 2023).

Molecular target: T1, hM5 (Homo sapiens, UniProt P08912)
T1 construct: expressed in transfected cells
T1 sequence (P08912 1-532): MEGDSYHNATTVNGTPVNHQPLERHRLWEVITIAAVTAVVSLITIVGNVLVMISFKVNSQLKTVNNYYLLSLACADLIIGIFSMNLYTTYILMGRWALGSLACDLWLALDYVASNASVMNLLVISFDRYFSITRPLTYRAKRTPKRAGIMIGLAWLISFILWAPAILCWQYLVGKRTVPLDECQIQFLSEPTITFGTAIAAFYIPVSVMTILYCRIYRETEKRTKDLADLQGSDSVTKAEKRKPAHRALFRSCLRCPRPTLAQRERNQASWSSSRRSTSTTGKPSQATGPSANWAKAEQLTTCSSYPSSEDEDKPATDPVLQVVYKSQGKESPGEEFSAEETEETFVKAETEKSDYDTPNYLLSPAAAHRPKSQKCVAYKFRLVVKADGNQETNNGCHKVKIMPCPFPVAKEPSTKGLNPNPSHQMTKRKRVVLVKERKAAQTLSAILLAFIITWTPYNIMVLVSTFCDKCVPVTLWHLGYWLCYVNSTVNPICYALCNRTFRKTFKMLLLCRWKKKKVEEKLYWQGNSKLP
Assay: Calcium mobilization concentration-response (IC50 vs EC80 acetylcholine), CHO hM5
Format: cell-based
Conditions: CELL LINE hM5; calcium mobilization, EC80 acetylcholine addition; read-out: IC50
In short: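 IC50 values derive from percent maximal acetylcholine response after an EC80 ACh addition, measured as kinetic calcium fluorescence (static ratio, max−min). Test compounds were added 140 s before agonist. Cells: stable hM5-CHO in HEPES-buffered HBSS with 2.5 mM probenecid, pH 7.4; ≥3 independent triplicate determinations.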

Structure (SMILES) | IC50 [nM]
Cc1cc2ncnn2cc1C1CCN(S(=O)(=O)c2ccccc2F)CC1 [Compound 97, 6-(1-((2-fluorophenyl)sulfonyl)piperidin-4-yl)-7-methyl-[1,2,4]triazolo[1,5-a]pyridine] | > 10000
Cc1c(C2CCN(S(=O)(=O)c3ccc4c(c3)CCO4)CC2)cn2ncnc2c1F [Compound 267, 6-(1-((2,3-dihydrobenzofuran-5-yl)sulfonyl)piperidin-4-yl)-8-fluoro-7-methyl-[1,2,4]triazolo[1,5-a]pyridine] | 208
Cc1cc2ncnn2cc1[C@@H]1CCN(S(=O)(=O)c2cnn(C)c2Cl)C[C@H]1O (racemic) [Compound 282, (rac)-trans-1-((5-Chloro-1-methyl-1H-pyrazol-4-yl)sulfonyl-4-(7-methyl-[1,2,4]triazolo[1,5-a]pyridin-6-yl)piperidin-3-ol] | 103
Cc1cc2ncnn2cc1C1CCN(S(=O)(=O)c2cnc3c(c2)C(C)CO3)CC1 (stereo not shown) [Compound 136, 3-methyl-5-((4-(7-methyl-[1,2,4]triazolo[1,5-a]pyridin-6-yl)piperidin-1-yl)sulfonyl)-2,3-dihydrofuro[2,3-b]pyridine] | 235
COc1cc(C2CCN(S(=O)(=O)c3ccc4c(c3)CCO4)CC2)cn2ncnc12 [Compound 114, 6-(1-((2,3-dihydrobenzofuran-5-yl)sulfonyl)piperidin-4-yl)-8-methoxy-[1,2,4]triazolo[1,5-a]pyridine] | > 10000
Cc1cc2nccn2cc1C1CCN(S(=O)(=O)c2ccc3c(c2)CCO3)CC1 [Compound 66, 6-(1-((2,3-dihydrobenzofuran-5-yl)sulfonyl)piperidin-4-yl)-7-methylimidazo[1,2-a]pyridine] | 1300
Cc1cc(C2CCN(S(=O)(=O)c3cnn(C)c3C)CC2)cn2ncnc12 [Compound 199, 6-(1-((1,5-dimethyl-1H-pyrazol-4-yl)sulfonyl)piperidin-4-yl)-8-methyl-[1,2,4]triazolo[1,5-a]pyridine] | > 10000
Cc1nn(C)c(Cl)c1S(=O)(=O)N1CCC(c2cn3ncnc3cc2F)CC1 [Compound 228, 6-(1-((5-chloro-1,3-dimethyl-1H-pyrazol-4-yl)sulfonyl)piperidin-4-yl)-7-fluoro-[1,2,4]triazolo[1,5-a]pyridine] | 125
Cc1cn2ncnc2cc1C1=CCN(S(=O)(=O)c2cnn(C)c2C)CC1 [Compound 212, 7-(1-((1,5-dimethyl-1H-pyrazol-4-yl)sulfonyl)-1,2,3,6-tetrahydropyridin-4-yl)-6-methyl-[1,2,4]triazolo[1,5-a]pyridine] | 1400
O=S(=O)(c1ccc2c(c1)CCO2)N1CC=C(c2cc3ncnn3cc2Cl)CC1 [Compound 140, 6-chloro-7-(1-((2,3-dihydrobenzofuran-5-yl)sulfonyl)-1,2,3,6-tetrahydropyridin-4-yl)-[1,2,4]triazolo[1,5-a]pyridine] | > 10000
O=S(=O)(c1ccc2c(c1)CCO2)N1CCC(c2nc3cccnc3s2)CC1 [Compound 12, 2-(1-((2,3-dihydrobenzofuran-5-yl)sulfonyl)piperidin-4-yl)thiazolo[5,4-b]pyridine] | > 10000
Cc1c(S(=O)(=O)N2CCC(c3ccc4ncnn4c3)CC2)cnn1C [Compound 288, 6(1-((1,5-dimethyl-1H-pyrazol-4-yl)sulfonyl)piperidin-4-yl)-[1,2,4]triazolo[1,5-a]pyridine] | 358
Cc1cc2ncnn2nc1C1=CCN(S(=O)(=O)c2ccc3c(c2)N(C)CCO3)CC1 [Compound 170, 4-methyl-6-((4-(7-methyl-[1,2,4]triazolo[1,5-b]pyridazin-6-yl)-3,6-dihydropyridin-1(2H)-yl)sulfonyl)-3,4-dihydro-H-benzo[b][1,4]oxazine] | > 10000
Cc1cc2ncnn2cc1C1CCN(S(=O)(=O)c2c(Cl)nn(C)c2C)CC1 [Compound 325, 6-(1-((3-chloro-1,5-dimethyl-1H-pyrazol-4-yl)sulfonyl)piperidin-4-yl)-7-methyl-[1,2,4]triazolo[1,5-a]pyridine] | 25
O=S(=O)(c1cnn2c1CCCC2)N1CC=C(c2cn3ncnc3cc2Cl)CC1 [Compound 242, 7-chloro-6-(1-((4,5,6,7-tetrahydropyrazolo[1,5-a]pyridin-3-yl)sulfonyl)-1,2,3,6-tetrahydropyridin-4-yl)-[1,2,4]triazolo[1,5-a]pyridine] | 5
CN1CCOc2cc(C3=CCN(S(=O)(=O)c4cnn(C)c4Cl)CC3)c(Cl)cc21 [Compound 377, 6-chloro-7-(1-((5-chloro-1-methyl-1H-pyrazol-4-yl)sulfonyl)-1,2,3,6-tetrahydropyridin-4-yl)-4-methyl-3,4-dihydro-2H-benzo[b][1,4]oxazine] | 1430
Cc1nc(C)c(S(=O)(=O)N2CCC(c3cn4ncnc4cc3C)CC2C)s1 (stereo not shown) [Compound 360, 2,4-dimethyl-5-((2-methyl-4-(7-methyl-[1,2,4]triazolo[1,5-a]pyridin-6-yl)piperidin-1-yl)sulfonyl)thiazole] | > 10000
Cc1cc2ncnn2cc1C1(O)CCN(S(=O)(=O)c2cnn(C)c2C)CC1 [Compound 308, 1-((1,5-Dimethyl-1H-pyrazol-4-yl)sulfonyl)-4-(7-methyl-[1,2,4]triazolo[1,5-a]pyridin-6-yl)piperidin-4-ol] | > 10000
Cc1cc2ncnn2cc1C1=CCN(S(=O)(=O)c2ccc3c(c2)C(C)CO3)CC1 (stereo not shown) [Compound 65, 7-Methyl-6-(1-((3-methyl-2,3-dihydrobenzofuran-5-yl)sulfonyl)-1,2,3,6-tetrahydropyridin-4-yl)[1,2,4]triazolo[1,5-a]pyridine] | 384
COc1cc(C2CCN(S(=O)(=O)c3cc4c(cc3F)OCC4)CC2)cn2ncnc12 [Compound 115, 6-(1-((6-fluoro-2,3-dihydrobenzofuran-5-yl)sulfonyl)piperidin-4-yl)-8-methoxy-[1,2,4]triazolo[1,5-a]pyridine] | > 10000
Cn1cc(S(=O)(=O)N2CCC(c3cn4ncnc4cc3C(F)(F)F)CC2)c(C(F)(F)F)n1 [Compound 99, 6-(1-((1-methyl-3-(trifluoromethyl)-1H-pyrazol-4-yl)sulfonyl)piperidin-4-yl)-7-(trifluoromethyl)-[1,2,4]triazolo[1,5-a]pyridine] | 5200

Same assay, conditions: CELL LINE hM5; vs EC80 acetylcholine; read-out: IC50

Structure (SMILES) | IC50 [nM]
Cn1ncc(S(=O)(=O)N2CCC(c3cn4ncnc4cc3C(F)F)CC2)c1CC#N [Compound 456, 2-(4-((4-(7-(difluoromethyl)-[1,2,4]triazolo[1,5-a]pyridin-6-yl)piperidin-1-yl)sulfonyl)-1-methyl-1H-pyrazol-5-yl)acetonitrile] | 414
Cc1cc2ncccc2cc1C1CCN(S(=O)(=O)c2cnn3c2OCCC3)CC1 [Compound 446, 3-((4-(7-methylquinolin-6-yl)piperidin-1-yl)sulfonyl)-6,7-dihydro-5H-pyrazolo[5,1-b][1,3]oxazine] | 28
Cn1ncc(S(=O)(=O)N2CCC(c3cn4ncnc4cc3Cl)CC2)c1C#N [Compound 405, 4-((4-(7-chloro-[1,2,4]triazolo[1,5-a]pyridin-6-yl)piperidin-1-yl)sulfonyl)-1-methyl-1H-pyrazole-5-carbonitrile] | 11
Cc1ncc(S(=O)(=O)N2CCC(c3cc(F)c4ncnn4c3)CC2)n1C [Compound 467, 6-(1-((1,2-dimethyl-1H-imidazol-5-yl)sulfonyl)piperidin-4-yl)-8-fluoro-[1,2,4]triazolo[1,5-a]pyridine] | 4140
Cc1cc2nccn2nc1N1CCN(S(=O)(=O)c2cnn3c2OCCC3)CC1 [Compound 437, 3-((4-(7-methylimidazo[1,2-b]pyridazin-6-yl)piperazin-1-yl)sulfonyl)-6,7-dihydro-5H-pyrazolo[5,1-b][1,3]oxazine] | 59
Cc1cc(S(=O)(=O)N2CCC(c3nn4ncnc4cc3C)CC2)sn1 [Compound 487, 3-methyl-5-((4-(7-methyl-[1,2,4]triazolo[1,5-b]pyridazin-6-yl)piperidin-1-yl)sulfonyl)isothiazole] | 343
Cc1cc2ncnn2cc1C1=C(C#N)CN(S(=O)(=O)c2cnn(C)c2Cl)CC1 [Compound 469, 1-((5-chloro-1-methyl-1H-pyrazol-4-yl)sulfonyl)-4-(7-methyl-[1,2,4]triazolo[1,5-a]pyridin-6-yl)-1,2,5,6-tetrahydropyridine-3-carbonitrile] | 1640
Cn1cnnc1S(=O)(=O)N1CCC(c2cn3ncnc3cc2C(F)F)CC1 [Compound 517, 7-(difluoromethyl)-6-(1-((4-methyl-4H-1,2,4-triazol-3-yl)sulfonyl)piperidin-4-yl)-[1,2,4]triazolo[1,5-a]pyridine] | > 10000
Cc1nnc(S(=O)(=O)N2CCC(c3cn4ncnc4cc3Cl)CC2)[nH]1 [Compound 599, 7-chloro-6-(1-((5-methyl-4H-1,2,4-triazol-3-yl)sulfonyl)piperidin-4-yl)-[1,2,4]triazolo[1,5-a]pyridine] | > 10000
Cc1cc2ncnn2cc1C1CCN(S(=O)(=O)c2cnn(C)c2C#N)CC1 [Compound 400, 1-Methyl-4-((4-(7-methyl-[1,2,4]triazolo[1,5-a]pyridin-6-yl)piperidin-1-yl)sulfonyl)-1H-pyrazole-5-carbonitrile] | 18
